According to patent publication US11839613B2, “Pyrimidine derivatives as PGE2 receptor modulators” (IDORSIA PHARMACEUTICALS LTD, priority 2017, dated 2023):

Assays:
[1] = target: PTGER4 (EP4) (Homo sapiens (Human), UniProt P35408); experiment: cell-based
[2] = target: PTGER2 (EP2) (Homo sapiens (Human), UniProt P43116); experiment: hEP2 b-arrestin assay (PathHunter HEK 293 PTGER2 b-arrestin cells); assay type: cell-based; conditions: antagonistic activity, beta-arrestin assay; read-out: hEP2 b-arr IC50
Sequence of PTGER2 (EP2) (P43116 whole entry): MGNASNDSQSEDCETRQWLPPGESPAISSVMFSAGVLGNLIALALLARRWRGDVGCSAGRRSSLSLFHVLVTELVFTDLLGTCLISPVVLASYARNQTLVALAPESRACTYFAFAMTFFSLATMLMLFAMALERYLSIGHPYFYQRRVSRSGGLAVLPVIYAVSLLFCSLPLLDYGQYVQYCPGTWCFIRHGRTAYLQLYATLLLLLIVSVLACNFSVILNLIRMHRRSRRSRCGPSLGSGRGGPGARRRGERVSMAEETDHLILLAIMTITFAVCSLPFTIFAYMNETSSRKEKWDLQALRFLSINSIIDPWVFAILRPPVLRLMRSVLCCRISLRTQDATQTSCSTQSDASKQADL
Description: Plate is pre-incubated 15 minutes at 37° C. Then five microliters of PGE2 (final conc. 5 μM) are transferred into the assay plate. Plate is incubated 120 minutes at 37° C.
(each concentration is measured in duplicate)

Sequence of PTGER4 (EP4) (P35408 whole entry): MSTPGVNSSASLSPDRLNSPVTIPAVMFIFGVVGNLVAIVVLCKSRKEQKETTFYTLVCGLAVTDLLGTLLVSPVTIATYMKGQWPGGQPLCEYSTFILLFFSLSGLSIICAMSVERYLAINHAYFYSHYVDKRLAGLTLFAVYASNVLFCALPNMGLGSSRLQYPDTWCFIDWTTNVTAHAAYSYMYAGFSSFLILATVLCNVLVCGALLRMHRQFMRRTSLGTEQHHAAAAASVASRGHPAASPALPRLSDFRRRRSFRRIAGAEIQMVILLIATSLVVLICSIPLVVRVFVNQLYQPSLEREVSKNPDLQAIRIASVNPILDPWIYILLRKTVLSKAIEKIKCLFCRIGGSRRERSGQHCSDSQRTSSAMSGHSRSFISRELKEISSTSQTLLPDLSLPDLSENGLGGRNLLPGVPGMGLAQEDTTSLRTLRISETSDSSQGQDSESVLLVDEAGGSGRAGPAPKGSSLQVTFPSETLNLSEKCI

IC50 [1] | IC50 [2] | Compound
929 nM | 427 nM | COc1cc(-c2cc(NCCc3ccc4c(c3C)OCCO4)ncn2)ccc1CC(=O)O [Example 505, (2-Methoxy-4-{6-[2-(5-methyl-2,3-dihydro-benzo[1,4]dioxin-6-yl)-ethylamino]-pyrimidin-4-yl}-phenyl)-acetic acid]
332 nM | 172 nM | CCOc1cc(-c2cc(NCCc3ccc4c(c3C)OCCO4)ncn2)ccc1CC(=O)O [Example 506, (2-Ethoxy-4-{6-[2-(5-methyl-2,3-dihydro-benzo[1,4]dioxin-6-yl)-ethylamino]-pyrimidin-4-yl}-phenyl)-acetic acid]
209 nM | 170 nM | COc1cc(-c2cc(NCCc3ccc4c(c3C)OCCO4)ncn2)ccc1OCCC(=O)O [Example 507, 3-(2-Methoxy-4-{6-[2-(5-methyl-2,3-dihydro-benzo[1,4]dioxin-6-yl)-ethylamino]-pyrimidin-4-yl}-phenoxy)-propionic acid]
748 nM | 85 nM | CCOc1cc(-c2cc(NCCc3ccc4c(c3C)OCCO4)ncn2)ccc1C(=O)O [Example 508, 2-Ethoxy-4-{6-[2-(5-methyl-2,3-dihydro-benzo[1,4]dioxin-6-yl)-ethylamino]-pyrimidin-4-yl}-benzoic acid]
356 nM | 29 nM | Cc1c(CCNc2cc(-c3ccc(CC(=O)O)c(OC(F)(F)F)c3)ncn2)ccc2c1OCCO2 [Example 509, (4-{6-[2-(5-Methyl-2,3-dihydro-benzo[1,4]dioxin-6-yl)-ethylamino]-pyrimidin-4-yl}-2-trifluoromethoxy-phenyl)-acetic acid]
194 nM | 45 nM | CCOc1cc2c(cc1CCNc1cc(-c3ccc(CC(=O)O)c(OC(F)F)c3)ncn1)OCCO2 [Example 510, (2-Difluoromethoxy-4-{6-[2-(7-ethoxy-2,3-dihydro-benzo[1,4]dioxin-6-yl)-ethylamino]-pyrimidin-4-yl}-phenyl)-acetic acid]
423 nM | 304 nM | Cc1c(CCNc2cc(-c3ccc(CC(=O)O)c(OC(F)F)c3)ncn2)ccc2c1OCCO2 [Example 511, (2-Difluoromethoxy-4-{6-[2-(5-methyl-2,3-dihydro-benzo[1,4]dioxin-6-yl)-ethylamino]-pyrimidin-4-yl}-phenyl)-acetic acid]
220 nM | 67 nM | CCOc1cc2c(cc1CCNc1cc(-c3ccc(CC(=O)O)c(CC)c3)ncn1)OCCO2 [Example 512, (4-{6-[2-(7-Ethoxy-2,3-dihydro-benzo[1,4]dioxin-6-yl)-ethylamino]-pyrimidin-4-yl}-2-ethyl-phenyl)-acetic acid]
347 nM | 158 nM | CCc1cc(-c2cc(NCCc3ccc4c(c3C)OCCO4)ncn2)ccc1CC(=O)O [Example 513, (2-Ethyl-4-{6-[2-(5-methyl-2,3-dihydro-benzo[1,4]dioxin-6-yl)-ethylamino]-pyrimidin-4-yl}-phenyl)-acetic acid]
112 nM | 262 nM | CCc1cc(-c2cc(NCCc3ccc4sccc4c3F)ncn2)ccc1CC(=O)O [Example 514, (2-Ethyl-4-{6-[2-(4-fluoro-benzo[b]thiophen-5-yl)-ethylamino]-pyrimidin-4-yl}-phenyl)-acetic acid]
893 nM | 67 nM | CCc1cc(-c2cc(NCCc3ccc4c(c3C)OCCO4)ncn2)ccc1C(=O)O [Example 515, 2-Ethyl-4-{6-[2-(5-methyl-2,3-dihydro-benzo[1,4]dioxin-6-yl)-ethylamino]-pyrimidin-4-yl}-benzoic acid]
930 nM | 23 nM | CCOc1cc2c(cc1CCNc1cc(-c3ccc(C(=O)O)c(CC)c3)ncn1)OCCO2 [Example 516, 4-{6-[2-(7-Ethoxy-2,3-dihydro-benzo[1,4]dioxin-6-yl)-ethylamino]-pyrimidin-4-yl}-2-ethyl-benzoic acid]
288 nM | 108 nM | CCc1cc(-c2cc(NCCc3ccc4ccccc4c3C)ncn2)ccc1C(=O)O [Example 517, 2-Ethyl-4-{6-[2-(1-methyl-naphthalen-2-yl)-ethylamino]-pyrimidin-4-yl}-benzoic acid]
176 nM | 116 nM | CCc1cc(-c2cc(NCCc3cc(F)c4sccc4c3)ncn2)ccc1C(=O)O [Example 518, 2-Ethyl-4-{6-[2-(7-fluoro-benzo[b]thiophen-5-yl)-ethylamino]-pyrimidin-4-yl}-benzoic acid]
262 nM | 19 nM | Cc1c(CCNc2cc(-c3ccc(C(=O)O)c(OC4CC4)c3)ncn2)ccc2c1OCCO2 [Example 519, 2-Cyclopropoxy-4-{6-[2-(5-methyl-2,3-dihydro-benzo[1,4]dioxin-6-yl)-ethylamino]-pyrimidin-4-yl}-benzoic acid]
107 nM | 19 nM | COc1cc2c(cc1CCNc1cc(-c3ccc(C(=O)O)c(OC4CC4)c3)ncn1)OCCO2 [Example 520, 2-Cyclopropoxy-4-{6-[2-(7-methoxy-2,3-dihydro-benzo[1,4]dioxin-6-yl)-ethylamino]-pyrimidin-4-yl}-benzoic acid]

IC50 [1] | IC50 [2] | Compound
78 nM | 31 nM | Cc1c(CCNc2cc(-c3ccc(C(=O)O)c(OC4CC4)c3)ncn2)ccc2ccccc12 [Example 521, 2-Cyclopropoxy-4-{6-[2-(1-methyl-naphthalen-2-yl)-ethylamino]-pyrimidin-4-yl}-benzoic acid]
204 nM | 131 nM | COc1cc2c(cc1CCNc1cc(-c3ccc(CC(=O)O)c(OC(F)F)c3)ncn1)OCCO2 [Example 522, (2-Difluoromethoxy-4-{6-[2-(7-methoxy-2,3-dihydro-benzo[1,4]dioxin-6-yl)-ethylamino]-pyrimidin-4-yl}-phenyl)-acetic acid]
195 nM | 227 nM | COc1cc2c(cc1CCNc1cc(-c3ccc(CC(=O)O)c(OC(C)C)c3)ncn1)OCCO2 [Example 523, (2-Isopropoxy-4-{6-[2-(7-methoxy-2,3-dihydro-benzo[1,4]dioxin-6-yl)-ethylamino]-pyrimidin-4-yl}-phenyl)-acetic acid]
257 nM | 231 nM | CCc1cc(-c2cc(NCCc3cc4c(cc3OC)OCCO4)ncn2)ccc1CC(=O)O [Example 524, (2-Ethyl-4-{6-[2-(7-methoxy-2,3-dihydro-benzo[1,4]dioxin-6-yl)-ethylamino]-pyrimidin-4-yl}-phenyl)-acetic acid]
349 nM | 160 nM | COc1cc2c(cc1CCNc1cc(-c3ccc(CC(=O)O)c(C(F)(F)F)c3)ncn1)OCCO2 [Example 525, (4-{6-[2-(7-Methoxy-2,3-dihydro-benzo[1,4]dioxin-6-yl)-ethylamino]-pyrimidin-4-yl}-2-trifluoromethyl-phenyl)-acetic acid]
269 nM | 96 nM | CCCc1cc(-c2cc(NCCc3cc4c(cc3C)OCCO4)ncn2)ccc1CC(=O)O [Example 526, (4-{6-[2-(7-Methyl-2,3-dihydro-benzo[1,4]dioxin-6-yl)-ethylamino]-pyrimidin-4-yl}-2-propyl-phenyl)-acetic acid]
337 nM | 892 nM | CCCc1cc(-c2cc(NCCc3ccc4c(c3)OCCO4)ncn2)ccc1CC(=O)O [Example 527, (4-{6-[2-(2,3-Dihydro-benzo[1,4]dioxin-6-yl)-ethylamino]-pyrimidin-4-yl}-2-propyl-phenyl)-acetic acid]
198 nM | 513 nM | CCCc1cc(-c2cc(NCCc3cc4c(cc3F)OCCO4)ncn2)ccc1CC(=O)O [Example 528, (4-{6-[2-(7-Fluoro-2,3-dihydro-benzo[1,4]dioxin-6-yl)-ethylamino]-pyrimidin-4-yl}-2-propyl-phenyl)-acetic acid]
55 nM | 699 nM | O=c1[nH]c(-c2ccc(-c3cc(NCCc4cc(F)c5sccc5c4)ncn3)cc2)no1 [Example 529, 3-(4-(6-((2-(7-fluorobenzo[b]thiophen-5-yl)ethyl)amino)pyrimidin-4-yl)phenyl)-[1,2,4]oxadiazol-5(4H)-one]
44 nM | 514 nM | CN1C(=O)NCc2ccc(-c3cc(NCCc4cc(F)c5sccc5c4)ncn3)cc21 [Example 530, 7-{6-[2-(7-Fluoro-benzo[b]thiophen-5-yl)-ethylamino]-pyrimidin-4-yl}-1-methyl-3,4-dihydro-1H-quinazolin-2-one]
110 nM | 624 nM | O=C(O)c1cccc2[nH]c(-c3cc(NCCc4cc(F)c5sccc5c4)ncn3)cc12 [Example 531, 2-{6-[2-(7-Fluoro-benzo[b]thiophen-5-yl)-ethylamino]-pyrimidin-4-yl}-1H-indole-4-carboxylic acid]
69 nM | 293 nM | Cc1cc(-c2cc(NCCc3cc(F)c4sccc4c3)ncn2)cc(C)c1O [Example 532, 4-{6-[2-(7-Fluoro-benzo[b]thiophen-5-yl)-ethylamino]-pyrimidin-4-yl}-2,6-dimethyl-phenol]
53 nM | 211 nM | CCSc1cc(-c2cc(NCCc3cc(F)c4sccc4c3)ncn2)ccc1C(=O)O [Example 533, 2-Ethylsulfanyl-4-{6-[2-(7-fluoro-benzo[b]thiophen-5-yl)-ethylamino]-pyrimidin-4-yl}-benzoic acid]
42 nM | 871 nM | CCOc1cc(-c2cc(NCCc3cc(F)c4sccc4c3)ncn2)sc1CCC(=O)O [Example 535, 3-(3-Ethoxy-5-{6-[2-(7-fluoro-benzo[b]thiophen-5-yl)-ethylamino]-pyrimidin-4-yl}-thiophen-2-yl)-propionic acid]
28 nM | 203 nM | O=c1c(O)c(-c2ccc(-c3cc(NCCc4cc(F)c5sccc5c4)ncn3)cc2)c1=O [Example 536, 3-(4-{6-[2-(7-Fluoro-benzo[b]thiophen-5-yl)-ethylamino]-pyrimidin-4-yl}-phenyl)-4-hydroxy-cyclobut-3-ene-1,2-dione]

Compound | IC50 [1] | IC50 [2]
O=C(O)c1ccc(-c2cc(NCCc3cc(F)c4sccc4c3)ncn2)cc1OC1CCC1 [Example 534, 2-Cyclobutoxy-4-{6-[2-(7-fluoro-benzo[b]thiophen-5-yl)-ethylamino]-pyrimidin-4-yl}-benzoic acid] | 70 nM | 332 nM
